Where a name gives a salt, the structure may show the parent alone.
Tests used:
thrombin = conditions: Bajusz et al., J. Med. Chem. 1990; cited from earlier work
t-PA = target: T1, t-PA (Homo sapiens, UniProt P00750); test: Kass for t-PA, chromogenic substrate; format: biochemical
T1 construct: purchased American Diagnostica, Greenwich, Conn
Method: (§1) By substantially following the procedures described above for human thrombin, and using other human blood coagulation system serine proteases and proteases of the fibrinolytic system with the appropriate chromogenic substrates, identified below, selectivity of the compounds of the present invention with respect to the coagulation factor serine proteases and with respect to the fibrinolytic system serine proteases are evaluated as well as their substantial lack of interference with serine proteases of the fibrinolytic system. […] This would be important to the therapeutic use of such agents as an adjunct to streptokinase, t-PA or urokinase thrombolytic therapy and to the use of such agents as an endogenous fibrinolysis-sparing (with respect to t-PA and urokinase) antithrombotic agent. In addition to the lack of interference with the amidase activity of the fibrinolytic proteases, such fibrinolytic system sparing can be studied by the use of human plasma clots and their lysis by the respective fibrinolytic plasminogen activators.

Human plasma [1] = test: Human plasma anticoagulation, thrombin time (TT); format: biochemical; conditions: concentration required to double the clotting time
Summary of the method: (§2)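 Prolongation of human plasma clotting was measured for PT (thromboplastin reagent), APTT (Actin, 120 s, then 0.02M CaCl2) and TT (bovine thrombin, 10 NIH units/mL). Concentration needed for a doubled time was estimated by linear extrapolation.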

[2] = Index of bioavailability (% relative activity from plasma TT, oral vs i.v.); format: in vivo; conditions: dose-adjusted AUC of plasma TT, p.o. vs i.v.
Method: Parke Davis) at 37° C. […] Assays are done in duplicate and averaged. […] Each sample population represented alternating sequential time points.

[3] = Simoons et al., Circulation 1994; cited from earlier work
human thrombin = human thrombin (Homo sapiens, UniProt P00734); test: Inhibition of thrombin amidase activity (Kass), chromogenic substrate; format: biochemical; conditions: association constant, mean over concentrations
factor Xa = factor Xa (Homo sapiens, UniProt P00742); test: Kass for factor Xa, chromogenic substrate; format: biochemical
Sequence of factor Xa (P00742 235-488 limits assumed): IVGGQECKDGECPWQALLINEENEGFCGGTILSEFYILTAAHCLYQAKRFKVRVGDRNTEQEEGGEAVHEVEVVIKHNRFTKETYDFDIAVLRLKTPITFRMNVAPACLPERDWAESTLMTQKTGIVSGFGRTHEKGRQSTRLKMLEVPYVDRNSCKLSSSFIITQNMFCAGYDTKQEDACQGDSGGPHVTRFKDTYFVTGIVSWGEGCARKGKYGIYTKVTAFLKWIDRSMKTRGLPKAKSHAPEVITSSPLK
Sequence of factor Xa (P00742 41-179 partner limits assumed): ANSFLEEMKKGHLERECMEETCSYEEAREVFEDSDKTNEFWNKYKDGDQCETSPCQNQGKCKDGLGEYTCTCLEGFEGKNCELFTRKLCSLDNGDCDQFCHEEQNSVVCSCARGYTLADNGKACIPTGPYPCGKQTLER
Method: as §1
(§3) Chromogenic substrates: N-Benzoyl-Ile-Glu-Gly-Arg-p-nitroanilide (for factor Xa); N-Cbz-D-Arg-Gly-Arg-p-nitroanilide (for factor IXa assay as the factor Xa substrate); Pyroglutamyl-Pro-Arg-p-nitroanilide (for Factor XIa and for aPC); H-D-Pro-Phe-Arg-p-nitroanilide (for factor XIIa); and Pyroglutamyl-Gly-Arg-p-nitroanilide (for urokinase); are purchased from KabiVitrnm, Stockholm, Sweden, or from Midwest Biotech, Fishers, Ind. Bovine trypsin is purchased from Worthington Biochemicals, Freehold, N.J., and human plasma kallikrein from Kabi Vitrum, Stockholm, Sweden. Chromogenic substrate H-D-Pro-Phe-Arg-p-nitroanilide for plasma kallikrein is purchased from Kabi Vitrum, Stockholm, Sweden. N-Benzoyl-Phe-Val-Arg-p-nitroanilide, the substrate for human thrombin and for trypsin, is synthesized according to procedures described above for the compounds of the present invention, using known methods of peptide coupling from commercially available reactants or purchased from Midwest Biotech, Fishers, Ind.

Bovine trypsin = target: T2, Bovine trypsin (Bos taurus, UniProt P00760); test: Kass for trypsin, chromogenic substrate; format: biochemical
T2 construct: Bovine trypsin is purchased from Worthington Biochemicals, Freehold, N.J; purchased Worthington Biochemicals, Freehold, N.J
T2 sequence (P00760 24-246): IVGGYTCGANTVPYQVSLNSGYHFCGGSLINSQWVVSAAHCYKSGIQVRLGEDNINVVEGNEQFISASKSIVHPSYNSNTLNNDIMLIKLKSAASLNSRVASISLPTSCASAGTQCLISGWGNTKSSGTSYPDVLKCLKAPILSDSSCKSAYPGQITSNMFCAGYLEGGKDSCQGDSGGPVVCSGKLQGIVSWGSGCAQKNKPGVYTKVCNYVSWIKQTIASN
Method: as §1, §3

Human plasmin = target: T3, Human plasmin (Homo sapiens, UniProt P00747); test: Kass for plasmin, chromogenic substrate; format: biochemical
T3 construct: Human plasmin is purchased from Boehringer Mannheim, Indianapolis, Ind; purchased Boehringer Mannheim, Indianapolis, Ind
T3 sequence (P00747 581-810 limits assumed): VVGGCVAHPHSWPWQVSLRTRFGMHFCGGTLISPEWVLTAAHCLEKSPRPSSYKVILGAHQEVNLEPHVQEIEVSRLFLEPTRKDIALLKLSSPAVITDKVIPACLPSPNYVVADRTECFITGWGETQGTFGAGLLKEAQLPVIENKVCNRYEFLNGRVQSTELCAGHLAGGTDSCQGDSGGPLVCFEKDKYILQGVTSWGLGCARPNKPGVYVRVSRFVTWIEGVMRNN
T3 sequence (P00747 97-580 partner limits assumed): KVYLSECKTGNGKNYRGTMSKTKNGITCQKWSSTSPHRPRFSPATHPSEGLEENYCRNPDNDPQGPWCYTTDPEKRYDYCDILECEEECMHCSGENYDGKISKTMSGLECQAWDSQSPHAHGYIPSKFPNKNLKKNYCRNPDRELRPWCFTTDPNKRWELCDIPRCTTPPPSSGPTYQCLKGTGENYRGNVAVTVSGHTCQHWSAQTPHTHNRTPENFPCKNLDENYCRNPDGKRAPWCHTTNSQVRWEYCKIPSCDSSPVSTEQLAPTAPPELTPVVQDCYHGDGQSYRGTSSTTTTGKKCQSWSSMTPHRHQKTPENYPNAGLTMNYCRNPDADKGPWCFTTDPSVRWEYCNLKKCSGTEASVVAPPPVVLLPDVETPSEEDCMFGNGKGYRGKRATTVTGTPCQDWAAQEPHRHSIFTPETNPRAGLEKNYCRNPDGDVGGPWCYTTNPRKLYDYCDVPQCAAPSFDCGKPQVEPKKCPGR
Method: as §1

Human plasma [4] = test: Human plasma anticoagulation, activated partial thromboplastin time (APTT); format: biochemical; conditions: concentration required to double the clotting time
Summary of the method: as §2

Human plasma [5] = test: Human plasma anticoagulation, prothrombin time (PT); format: biochemical; conditions: concentration required to double the clotting time
Summary of the method: as §2

T1 sequence (P00750 36-562): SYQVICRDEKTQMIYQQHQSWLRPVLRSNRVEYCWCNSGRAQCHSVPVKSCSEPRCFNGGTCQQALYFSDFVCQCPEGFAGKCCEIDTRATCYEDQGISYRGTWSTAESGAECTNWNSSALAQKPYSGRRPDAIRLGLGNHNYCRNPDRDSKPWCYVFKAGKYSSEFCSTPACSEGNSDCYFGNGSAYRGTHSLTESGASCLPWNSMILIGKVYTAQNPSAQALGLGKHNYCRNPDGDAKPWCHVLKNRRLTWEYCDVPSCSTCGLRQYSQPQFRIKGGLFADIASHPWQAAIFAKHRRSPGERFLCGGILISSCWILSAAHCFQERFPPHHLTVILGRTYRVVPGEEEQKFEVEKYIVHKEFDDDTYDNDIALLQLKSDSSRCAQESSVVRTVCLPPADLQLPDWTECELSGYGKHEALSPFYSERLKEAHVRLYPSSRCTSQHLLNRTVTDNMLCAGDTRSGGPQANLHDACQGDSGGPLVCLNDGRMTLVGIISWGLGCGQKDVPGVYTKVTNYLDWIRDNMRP

CC(C)(C)OC(=O)N[C@H](Cc1ccccc1)C(=O)N1CCC[C@H]1C(=O)N[C@H](C=O)CCCNC(=N)N [Boc-D-Phe-Pro-Arg-H]
direct inhibition of thrombin (thrombin): potent direct inhibition of thrombin

CCS(=O)(=O)N[C@H](Cc1ccccc1)C(=O)N1CCC[C@H]1C(=O)NCCCCNC(=N)N [Example 1, EtSO2 -D-Phe-Pro-Agm.HCl]
Kass t-PA (t-PA): 0.082 | 2x Clotting time TT (Human plasma [1]): 250 ng/mL | % oral/i.v. activity (Rat) [2]: 8%

CN[C@H](Cc1ccccc1)C(=O)N1CCC[C@H]1C(=O)N[C@H](C=O)CCCNC(=N)N [D-MePhe-Pro-Arg-H]
direct inhibition of thrombin (thrombin): potent direct inhibition of thrombin

CN[C@H](Cc1ccccc1)C(=O)N1CCC[C@H]1C(=O)N[C@H](C=O)CCCNC(=N)N.O=S(=O)(O)O [D-MePhe-Pro-Arg-H sulfate]
anticoagulant activity in man [3]: anticoagulant in man

D-hPro-Pro(4-cis-PhO)-p-NHCH2 -C6 H4 C(NH)NH2.2HCl [Example 22]
Kass Human Thrombin (human thrombin): 3.0 × 10^6 (L/mole) | Kass Xa (factor Xa): 0.043 × 10^6 (L/mole) | Kass Trypsin (Bovine trypsin): 8.5 × 10^6 (L/mole) | Kass Plasmin (Human plasmin): 0.042 × 10^6 (L/mole) | Kass t-PA (t-PA): 0.004 × 10^6 (L/mole) | 2x Clotting time TT (Human plasma [1]): 170 ng/mL | 2x Clotting time APTT (Human plasma [4]): 2,300 ng/mL | 2x Clotting time PT (Human plasma [5]): 1,000 ng/mL

N=C(N)NCCC[C@@H](C=O)NC(=O)[C@@H]1CCCN1C(=O)[C@H](N)Cc1ccccc1 [D-Phe-Pro-Arg-H]
direct inhibition of thrombin (thrombin): potent direct inhibition of thrombin

— patent US5726159A, “Antithrombotic agents” (Eli Lilly and Company, priority 1995, dated 1998)
